These results are taken from US20070280975A1, “Method for Producing Maca Extract” (Suntory Limited, priority 2004, published 2007).

This test relates to mast cells. Briefly: Suppressive effect on the isolation of histamine from mast cells (compound 48/80 induced). In kind it is cell-based, Wister rats. The note with it: DSCG 0.1 mg/mL; same line of test procedures. The method, then:
The anti-allergic effects of the Maca extract of the present invention can be evaluated by the suppressive effect on the isolation of histamine from mast cells. The Suppressive Effect on the Isolation of Histamine from Mast Cells The test was conducted according to the method of Yuko HIRAI, et al. (Natural Medicines: Vol. 37, p374-380, 1983). That is, Tyrode was interperitoneally injected to Wister rats bled to death and peritoneal cavity cells were taken. Therefrom, mast cells were isolated by the multilevel centrifugal method using Bovine Serum Albumin (BSA)/physiological saline (relative gravity: 1.068). […] The resultant was then ice cooled and amount of histamine in the supernatant after centrifugation (150 g×5 minutes) was measured by high performance liquid chromatography with fluorescence detector attachment. […] The solution obtained was each measured to 0.25 mg/mL, and the above explained suppressive effect on the isolation of histamine from mast cell was evaluated. On the other hand, the above explained suppressive effect on the isolation of histamine from mast cell was evaluated for control solutions 1 to 3 which were obtained in the same procedures as for the solutions of the present invention except for extraction condition such as extraction temperature and ethanol concentration.

In the case of `O=C(O)c1cc(=O)c2c(OCC(O)COc3cccc4oc(C(=O)O)cc(=O)c34)cccc2o1` [DSCG, sodium cromoglycate], the “suppressive effect on isolation of histamine” value is reported as 50%.
